Key:
[1] = molecular target: T1, human recombinant AT1 receptor (Homo sapiens, UniProt P30556); assay: Binding to AT1 receptor, radiometric scintillation assay (Eurofins protocol ITEM26 and ITEM24); settings: read-out: AT1 IC50, ligand 125I (sar1,Ile8)-AT-II, 1 and 10 uM, 2-4 h at 37° C.
T1 sequence (P30556 1-359): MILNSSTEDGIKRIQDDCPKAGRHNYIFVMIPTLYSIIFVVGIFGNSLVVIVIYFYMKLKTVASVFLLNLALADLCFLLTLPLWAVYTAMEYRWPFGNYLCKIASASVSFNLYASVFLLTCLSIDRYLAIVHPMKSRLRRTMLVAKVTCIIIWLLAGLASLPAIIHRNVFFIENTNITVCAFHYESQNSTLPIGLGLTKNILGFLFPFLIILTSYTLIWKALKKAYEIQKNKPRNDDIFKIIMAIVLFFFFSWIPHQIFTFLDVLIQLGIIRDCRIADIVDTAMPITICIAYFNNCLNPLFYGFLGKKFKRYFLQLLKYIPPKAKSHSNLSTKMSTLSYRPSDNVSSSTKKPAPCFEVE
Protocol: (§3) Compounds were evaluated for binding to the human recombinant AT2 and AT1 receptor according to Eurofins protocol ITEM26 and ITEM24 using a radiometric scintillation assay.

CYP3A4 = CYP3A4 (Homo sapiens, UniProt P08684); assay: CYP inhibition in human liver microsomes (Eurofins protocol ITEMG232), midazolam substrate; assay type: in vitro ADME; set-up: using isoform-specific substrates incubated with human liver microsomes; tissue Eurofins ITEMG232; host or cells: human liver microsomes; settings: for CYP3A4 midazolam Inh %: 10 μM; for inhibition at 10 µM: probe midazolam, read-out: CYP3A4 midazolam Inh %
Sequence of CYP3A4 (P08684 whole entry, canonical isoform): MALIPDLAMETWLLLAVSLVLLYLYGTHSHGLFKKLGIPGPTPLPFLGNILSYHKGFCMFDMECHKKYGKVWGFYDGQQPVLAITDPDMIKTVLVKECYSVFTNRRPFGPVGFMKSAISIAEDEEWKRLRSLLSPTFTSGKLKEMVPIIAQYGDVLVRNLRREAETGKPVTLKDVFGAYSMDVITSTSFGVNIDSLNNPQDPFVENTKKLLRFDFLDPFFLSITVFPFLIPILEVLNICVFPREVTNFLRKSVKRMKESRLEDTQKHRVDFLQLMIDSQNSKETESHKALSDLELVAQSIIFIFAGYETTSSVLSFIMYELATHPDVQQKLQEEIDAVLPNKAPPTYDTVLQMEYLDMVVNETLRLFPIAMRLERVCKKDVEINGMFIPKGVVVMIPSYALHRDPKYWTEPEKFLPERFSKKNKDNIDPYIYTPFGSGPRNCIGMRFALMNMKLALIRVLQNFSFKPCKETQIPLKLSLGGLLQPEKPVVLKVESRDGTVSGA
Protocol: (§1) The following substrates were used; CYP1A phenacetin, CYP2B6 bupropion, CYP2C8 paclitaxel and amodiaquine, CYP2C9 diclofenac, CYP2C19 omeprazole, CYP2D6 dextromethorphan, CYP3A midazolam and testosterone.
(§2) At the end of the incubation, the formation of metabolite was monitored by HPLC-MS/MS as the peak area response.

[2] = molecular target: T2, human recombinant AT2 receptor (Homo sapiens, UniProt P50052); assay: Binding to AT2 receptor, radiometric scintillation assay (Eurofins protocol ITEM26 and ITEM24); settings: read-out: AT2 IC50, ligand 125I CGP 42112A, 1, 10, 100 and 1000 nM, 2-4 h at 37° C.
T2 sequence (P50052 1-363): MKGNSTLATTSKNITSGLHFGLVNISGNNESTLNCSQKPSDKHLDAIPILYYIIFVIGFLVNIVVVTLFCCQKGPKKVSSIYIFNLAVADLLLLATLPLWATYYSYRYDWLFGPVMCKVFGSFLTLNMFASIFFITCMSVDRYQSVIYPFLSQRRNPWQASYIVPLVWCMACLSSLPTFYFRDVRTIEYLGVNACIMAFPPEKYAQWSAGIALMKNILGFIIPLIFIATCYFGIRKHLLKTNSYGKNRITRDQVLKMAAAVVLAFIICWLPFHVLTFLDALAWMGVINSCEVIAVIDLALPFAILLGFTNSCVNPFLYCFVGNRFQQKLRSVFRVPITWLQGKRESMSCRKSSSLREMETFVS
Protocol: as §3

CYP2C19 = molecular target: T3, CYP2C19 (Homo sapiens, UniProt P33261); assay: CYP inhibition in human liver microsomes (Eurofins protocol ITEMG232); assay type: in vitro ADME; settings: substrate omeprazole; for CYP2C19 Inh %: 10 μM; for inhibition at 10 µM: probe omeprazole, read-out: CYP2C19 Inh %
T3 construct: using isoform-specific substrates incubated with human liver microsomes; tissue Eurofins ITEMG232; host or cells: human liver microsomes
T3 sequence (P33261 whole entry, canonical isoform): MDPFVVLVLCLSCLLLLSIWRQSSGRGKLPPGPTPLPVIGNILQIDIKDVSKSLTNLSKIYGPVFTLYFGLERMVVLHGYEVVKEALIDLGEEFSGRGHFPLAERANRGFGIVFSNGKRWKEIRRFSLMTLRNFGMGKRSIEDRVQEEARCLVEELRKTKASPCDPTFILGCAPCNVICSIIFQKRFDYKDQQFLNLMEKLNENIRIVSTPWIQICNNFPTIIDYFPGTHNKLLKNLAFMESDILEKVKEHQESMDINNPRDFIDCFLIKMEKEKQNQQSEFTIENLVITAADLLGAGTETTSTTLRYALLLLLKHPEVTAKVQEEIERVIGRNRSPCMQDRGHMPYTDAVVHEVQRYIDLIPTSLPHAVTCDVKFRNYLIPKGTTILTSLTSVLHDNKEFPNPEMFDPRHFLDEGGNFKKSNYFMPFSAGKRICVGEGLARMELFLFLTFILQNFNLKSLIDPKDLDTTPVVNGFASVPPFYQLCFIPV
Protocol: as §1, §2

CYP2B6 = molecular target: T4, CYP2B6 (Homo sapiens, UniProt P20813); assay: as above; assay type: in vitro ADME; settings: substrate bupropion; for CYP2B6 Inh %: 10 μM; for inhibition at 10 µM: probe bupropion, read-out: CYP2B6 Inh %
T4 construct: using isoform-specific substrates incubated with human liver microsomes; tissue Eurofins ITEMG232; host or cells: human liver microsomes
T4 sequence (P20813 1-491): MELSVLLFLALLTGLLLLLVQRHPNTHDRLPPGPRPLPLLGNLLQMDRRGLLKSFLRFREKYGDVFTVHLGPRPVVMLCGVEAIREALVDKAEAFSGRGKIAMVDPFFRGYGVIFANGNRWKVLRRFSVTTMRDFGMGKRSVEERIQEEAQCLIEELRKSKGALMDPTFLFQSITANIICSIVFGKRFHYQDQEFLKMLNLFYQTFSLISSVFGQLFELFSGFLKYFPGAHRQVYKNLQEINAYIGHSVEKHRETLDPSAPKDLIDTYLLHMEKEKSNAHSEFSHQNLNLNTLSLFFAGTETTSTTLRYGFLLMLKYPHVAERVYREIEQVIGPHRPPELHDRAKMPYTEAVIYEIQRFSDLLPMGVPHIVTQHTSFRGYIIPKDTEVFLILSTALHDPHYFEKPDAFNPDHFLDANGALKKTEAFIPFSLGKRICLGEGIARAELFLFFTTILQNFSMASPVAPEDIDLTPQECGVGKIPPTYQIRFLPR
Protocol: as §1, §2

CYP2C8 = molecular target: T5, CYP2C8 (Homo sapiens, UniProt P10632); assay: as above; assay type: in vitro ADME; settings: substrates paclitaxel and amodiaquine; for CYP2C8 Inh %: 10 μM; for inhibition at 10 µM: probe paclitaxel and amodiaquine, read-out: CYP2C8 Inh %
T5 construct: using isoform-specific substrates incubated with human liver microsomes; tissue Eurofins ITEMG232; host or cells: human liver microsomes
T5 sequence (P10632 1-490): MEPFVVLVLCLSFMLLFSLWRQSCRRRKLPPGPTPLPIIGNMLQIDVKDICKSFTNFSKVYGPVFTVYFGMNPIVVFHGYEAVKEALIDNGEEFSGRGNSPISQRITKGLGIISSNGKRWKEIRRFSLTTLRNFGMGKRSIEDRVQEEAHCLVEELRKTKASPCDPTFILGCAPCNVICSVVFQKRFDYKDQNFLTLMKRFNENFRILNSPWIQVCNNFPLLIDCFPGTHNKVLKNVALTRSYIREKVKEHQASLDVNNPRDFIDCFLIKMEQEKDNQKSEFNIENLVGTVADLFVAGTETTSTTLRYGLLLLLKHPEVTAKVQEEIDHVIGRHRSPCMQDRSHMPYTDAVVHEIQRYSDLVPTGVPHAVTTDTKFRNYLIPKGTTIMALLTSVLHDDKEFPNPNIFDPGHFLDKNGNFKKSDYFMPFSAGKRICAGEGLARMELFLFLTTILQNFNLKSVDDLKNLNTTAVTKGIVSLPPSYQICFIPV
Protocol: as §1, §2

CYP2D6 = molecular target: T6, CYP2D6 (Homo sapiens, UniProt P10635); assay: as above; assay type: in vitro ADME; settings: substrate dextromethorphan; for CYP2D6 Inh %: 10 μM; for inhibition at 10 µM: probe dextromethorphan, read-out: CYP2D6 Inh %
T6 construct: tissue Eurofins ITEMG232; host or cells: human liver microsomes
T6 sequence (P10635 whole entry): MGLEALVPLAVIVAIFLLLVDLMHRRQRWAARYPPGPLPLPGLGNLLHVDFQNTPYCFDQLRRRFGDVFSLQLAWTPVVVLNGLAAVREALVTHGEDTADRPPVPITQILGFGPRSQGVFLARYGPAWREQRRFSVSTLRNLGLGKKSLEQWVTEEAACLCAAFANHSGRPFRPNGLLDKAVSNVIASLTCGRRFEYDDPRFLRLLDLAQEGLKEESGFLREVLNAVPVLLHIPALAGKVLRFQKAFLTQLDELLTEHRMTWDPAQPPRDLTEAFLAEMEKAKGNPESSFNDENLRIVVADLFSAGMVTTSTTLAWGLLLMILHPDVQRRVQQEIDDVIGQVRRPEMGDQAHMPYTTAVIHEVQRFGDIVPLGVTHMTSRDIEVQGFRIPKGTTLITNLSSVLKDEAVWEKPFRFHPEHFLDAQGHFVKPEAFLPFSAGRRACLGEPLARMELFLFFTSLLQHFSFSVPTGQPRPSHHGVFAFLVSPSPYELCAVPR
Protocol: as §1, §2

CYP3A4&5 = assay: CYP inhibition in human liver microsomes (Eurofins protocol ITEMG232), testosterone substrate; assay type: in vitro ADME; settings: for CYP3A4&5 testosterone Inh %: 10 μM; for inhibition at 10 µM: probe testosterone, read-out: CYP3A4&5 testosterone Inh %
Protocol: as §1, §2

Compound | IC50 [1] [nM] | CYP3A4 midazolam Inh % (CYP3A4) [%] | IC50 [2] [nM] | CYP2C19 Inh % (CYP2C19) [%] | CYP2B6 Inh % (CYP2B6) [%] | CYP2C8 Inh % (CYP2C8) [%] | CYP2D6 Inh % (CYP2D6) [%] | CYP3A4&5 testosterone Inh % (CYP3A4&5) [%] | inhibition at 10 µM (CYP3A4) [%] | inhibition at 10 µM (CYP2C19) [%] | inhibition at 10 µM (CYP2B6) [%] | inhibition at 10 µM (CYP2C8) [%] | inhibition at 10 µM (CYP2D6) [%] | inhibition at 10 µM (CYP3A4&5) [%]
CCc1nccn1Cc1ccc(-c2cc(CC(C)C)sc2S(=O)(=O)NC(=O)OCc2ccc(F)cc2)cc1F.O=C(O)C(F)(F)F [Example 6, 4-Fluorobenzyl (3-(4((2-ethyl-1H-imidazol-1-yl)methyl)-3-fluorophenyl)-5-isobutylthio-phen-2-yl)sulfonylcarbamate trifluoroacetic acid] | > 1000 | −39 | 1.8 | 52 | 30 | 55 | 50 | 13 | – | – | – | – | – | –
COCCOC(=O)NS(=O)(=O)c1sc(CC(C)C)cc1-c1ccc(Cn2ccnc2C)c(F)c1.O=C(O)C(F)(F)F [Example 3] | > 1000 | −52 | 3.5 | 39 | 36 | 26 | 44 | −20 | – | – | – | – | – | –
Cc1nccn1Cc1ccc(-c2cc(CC(C)C)sc2S(=O)(=O)NC(=O)OCCOC(=O)C(C)(C)C)cc1F [Example 19, 2-((((3-(3-Fluoro-4-((2-methyl-1H-imidazol-1-yl)methyl)phenyl)-5-isobutylthiophen-2-yl)sulfonyl)carbamoyl)oxy)ethyl pivalate] | – | – | – | – | – | – | – | – | 43.4 | 54.1 | 26.9 | 83.2 | 31.3 | 20.7
Cc1nccn1Cc1c(F)cc(-c2cc(CC(C)C)sc2S(=O)(=O)NC(=O)OCCO)cc1F [Example 18, 2-Hydroxyethyl (3-(3,5-difluoro-4-((2-methyl-1H-imidazol-1-yl)methyl)phenv1)-5-isobutylthiophen-2-yl)sulfonylcarbamate] | 16000 | −35.6 | 0.87 | 5.9 | 33.3 | 56.1 | 48.8 | 1.7 | – | – | – | – | – | –
CCOC(=O)NS(=O)(=O)c1sc(CC(C)C)cc1-c1ccc(Cn2ccnc2C)c(F)c1.O=C(O)C(F)(F)F [Example 1, Ethyl (3-(3-fluoro-4-((2-methyl-1H-imidazol-1-yl)methyl)phenyl)-5-isobutylthiophen-2-yl)sulfonvicarbamate trifluoroacetic acid] | > 1000 | −42 | 2.4 | 37 | 39 | 37 | 45 | −2 | – | – | – | – | – | –
CCOC(=O)NS(=O)(=O)c1sc(CC(C)C)cc1-c1ccc(Cn2ccnc2CC)c(F)c1.O=C(O)C(F)(F)F [Example 7, Ethyl (3-(4-((2-ethyl-1H-imidazol-1-yl)methyl)-3-fluorophenyl)-5-isobutylthiophen-2-30 yl)sulfonylcarbamate trifluoroacetic acid] | > 1000 | −31 | 1.8 | 41 | 26 | 66 | 39 | 18 | – | – | – | – | – | –
CC(C)Cc1cc(-c2ccc(Cn3ccnc3C(C)(C)C)c(F)c2)c(S(=O)(=O)NC(=O)c2ccccn2)s1 [Example 27, N-((3-(4-((2-(Tert-Butyl)-1H-imidazol-1-yl)methyl)-3-fluorophenyl)-5-isobutylthio-phen-2-yl)sulfonyl)picolinamide] | – | – | – | – | – | – | – | – | 7.3 | 43.2 | 25 | 65.7 | 20.1 | 27.4
CCOC(=O)NS(=O)(=O)c1sc(CC(C)C)cc1-c1ccc(Cn2ccnc2C(C)C)c(F)c1.O=C(O)C(F)(F)F [Example 8, Ethyl (3-(3-fluoro-4-((2-isopropyl-1H-imidazol-1-yl)methyl)phenyl)-5-isobutylthio-phen-2-yl)sulfonylcarbamate trifluoroacetic acid] | > 1000 | −52 | 3.5 | 39 | 36 | 26 | 44 | −20 | – | – | – | – | – | –
